Reference: article PMC10374545, “A small molecule inhibitor of PTP1B and PTPN2 enhances T cell anti-tumor immunity” (Nature Communications, 2023)

Experiments:
Assay in all cases: PTP selectivity, DiFMUP assay
Format in all cases: biochemical
Conditions in all cases: DiFMUP at Km
[1] = biological target: T1, PTPε (Homo sapiens, UniProt P23469)
T1 construct: PTPε, residues 107-697; made in house; host or cells: E. coli BL21(DE3)
Method: (§1) E. coli BL21(DE3) (Novagen) was used as an expression host and the induction of protein expression was carried out in LB media with 1 mM IPTG at 18 °C overnight. Cell pellets were stored at −80 °C for subsequent protein purification.
(§2) Protein purification of PTPs for enzymatic assays was conducted at 4 °C. Frozen cell pellets were lysed by sonication in 40 ml cold lysis buffer (50 mM Tris-HCl, pH 8.0, 150 mM NaCl, 5 mM imidazole, and 1 mM PMSF) per litre cell pellet. Cell lysates were clarified by centrifugation using a Beckman JA-18 rotor for 15 min at 5308 x g. The supernatant was incubated with HisPur Ni-NTA resin (Thermo Scientific) for 2 h and then packed onto a column and washed with 50 resin volume of buffer A (50 mM Tris-HCl, pH 8.0, 500 mM NaCl, 5 mM imidazole). The His-tagged proteins were eluted with Buffer B (50 mM Tris-HCl, pH=8.0, 500 mM NaCl, 300 mM imidazole,). Pooled His-protein-containing fractions were concentrated, loaded onto a HiLoad 26/600 Superdex 75 column (GE Healthcare Biosciences) and eluted with storage buffer (50 mM Tris-HCl, pH 8.0, 150 mM NaCl, 1 mM DTT, 10% glycerol). […] The protein was aliquoted and stored at −80 °C.
(§3) The PTP kinetic assay was modified from previous reported protocols[73],[74]. PTP activity was assayed using 6,8-Difluoro-4-Methylumbelliferyl Phosphate (DiFMUP, Invitrogen, cat# D6567,) as a substrate in 3,3-Dimethylglutaric acid (DMG) buffer (50 mM DMG, pH 7.0, 1 mM EDTA, 18 mM NaCl, 0.01% Triton X-100) at 25 °C. To determine the IC50 values, the assays were performed in 96-well plates (Corning Costar 3915). […] The final reaction volume is 200 µl. The reaction was allowed to proceed for 10 min and then quenched by the addition of 40 µl of a 160 µM solution of bpV(Phen) (Sigma-Aldrich, cat# SML0889). The fluorescence signal was measured using a CLARIOstar Plus Microplate Spectrophotometer (BMG Labtech) using excitation and emission wavelengths of 340 nm and 450 nm, respectively. Data were fitted using Prism GraphPad 9.2.0.
(§4) To determine the mode of inhibition, the reactions were initiated by the addition of enzyme (final concentration for PTP1B and PTPN2 was 0.05 nM) to the reaction mixtures (0.2 ml) containing various concentrations of DiFMUP with different concentrations of the inhibitor. The reaction was allowed to proceed for 10 min and then quenched by the addition of 40 µl of a 160 µM solution of bpV(Phen) (Sigma-Aldrich, cat# SML0889). The fluorescence signal was measured using a CLARIOstar Plus Microplate Spectrophotometer (BMG Labtech) using excitation and emission wavelength of 340 nm and 450 nm, respectively. Data were fitted using Prism GraphPad 9.2.0. For selectivity studies, the inhibition assay for other PTPs were performed under the same conditions as used for PTP1B and PTPN2 except with different DiFMUP concentration corresponding to the Km of the PTP studied.

[2] = biological target: T2, CDC14A (Homo sapiens, UniProt Q9UNH5)
T2 construct: CDC14A, residues 1-413; made in house; host or cells: E. coli BL21(DE3)
Method: as §1, §2, §3, §4

[3] = biological target: T3, HePTP (Homo sapiens, UniProt P35236)
T3 construct: HePTP, residues 22-360; made in house; host or cells: E. coli BL21(DE3)
Method: as §1, §2, §3, §4

[4] = biological target: T4, STEP (Homo sapiens, UniProt P54829)
T4 construct: STEP, residues 258-539; made in house; host or cells: E. coli BL21(DE3)
Method: as §1, §2, §3, §4

[5] = biological target: T5, SHP-1 (Homo sapiens, UniProt P29350)
T5 construct: SHP-1, residues 245-543; made in house; host or cells: E. coli BL21(DE3)
Method: as §1, §2, §3, §4

[6] = biological target: T6, Laforin (Homo sapiens, UniProt O95278)
T6 construct: made in house; host or cells: E. coli BL21(DE3)
Method: as §1, §2, §3, §4

[7] = biological target: T7, CDC14B (Homo sapiens, UniProt O60729)
T7 construct: CDC14B, residues 1-411; made in house; host or cells: E. coli BL21(DE3)
Method: as §1, §2, §3, §4

[8] = biological target: T8, MKP5 (Homo sapiens, UniProt Q9Y6W6)
T8 construct: MKP5, residues 320-647; made in house; host or cells: E. coli BL21(DE3)
Method: as §1, §2, §3, §4

[9] = biological target: T9, VHZ (Homo sapiens, UniProt Q9BVJ7)
T9 construct: VHZ, residues 1-150; made in house; host or cells: E. coli BL21(DE3)
Method: as §1, §2, §3, §4

[10] = biological target: T10, SHP-2 (Homo sapiens, UniProt Q06124)
T10 construct: SHP-2, residues 224-528; made in house; host or cells: E. coli BL21(DE3)
Method: as §1, §2, §3, §4

[11] = biological target: T11, PTPα (Homo sapiens, UniProt P18433)
T11 construct: PTPα, residues 173-793; made in house; host or cells: E. coli BL21(DE3)
Method: as §1, §2, §3, §4

[12] = biological target: T12, FAP-1 (Homo sapiens, UniProt Q12923)
T12 construct: FAP1, residues 2124-2485; made in house; host or cells: E. coli BL21(DE3)
Method: as §1, §2, §3, §4

[13] = biological target: T13, CD45 (Homo sapiens, UniProt P08575)
T13 construct: CD45, residues 620-1236; made in house; host or cells: E. coli BL21(DE3)
Method: as §1, §2, §3, §4

[14] = biological target: T14, LMPTP (Homo sapiens, UniProt P24666)
T14 construct: LMWPTP, residues 1-158; made in house; host or cells: E. coli BL21(DE3)
Method: as §1, §2, §3, §4

[15] = biological target: T15, LYP (Homo sapiens, UniProt Q9Y2R2)
T15 construct: LYP/PTPN22, residues 1-294; made in house; host or cells: E. coli BL21(DE3)
Method: as §1, §2, §3, §4

[16] = biological target: T16, PTP-PEST (Homo sapiens, UniProt Q05209)
T16 construct: PTP-PEST, residues 5-304; made in house; host or cells: E. coli BL21(DE3)
Method: as §1, §2, §3, §4

T8 sequence (Q9Y6W6 320-467 limits assumed): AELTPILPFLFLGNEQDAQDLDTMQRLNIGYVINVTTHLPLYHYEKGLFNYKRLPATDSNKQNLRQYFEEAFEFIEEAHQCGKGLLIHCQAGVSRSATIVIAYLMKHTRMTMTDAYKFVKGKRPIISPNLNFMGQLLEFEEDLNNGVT
T12 sequence (Q12923 2124-2485): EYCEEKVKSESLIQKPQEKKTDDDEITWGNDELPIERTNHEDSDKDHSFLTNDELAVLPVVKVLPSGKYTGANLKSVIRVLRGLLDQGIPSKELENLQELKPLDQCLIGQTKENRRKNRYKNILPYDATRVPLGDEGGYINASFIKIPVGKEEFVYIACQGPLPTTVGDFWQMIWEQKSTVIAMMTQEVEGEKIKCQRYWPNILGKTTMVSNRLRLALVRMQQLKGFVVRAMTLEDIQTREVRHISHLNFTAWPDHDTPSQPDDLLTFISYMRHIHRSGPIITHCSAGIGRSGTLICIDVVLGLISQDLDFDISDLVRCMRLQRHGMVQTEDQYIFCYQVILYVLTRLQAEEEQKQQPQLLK
T13 sequence (P08575 620-1236): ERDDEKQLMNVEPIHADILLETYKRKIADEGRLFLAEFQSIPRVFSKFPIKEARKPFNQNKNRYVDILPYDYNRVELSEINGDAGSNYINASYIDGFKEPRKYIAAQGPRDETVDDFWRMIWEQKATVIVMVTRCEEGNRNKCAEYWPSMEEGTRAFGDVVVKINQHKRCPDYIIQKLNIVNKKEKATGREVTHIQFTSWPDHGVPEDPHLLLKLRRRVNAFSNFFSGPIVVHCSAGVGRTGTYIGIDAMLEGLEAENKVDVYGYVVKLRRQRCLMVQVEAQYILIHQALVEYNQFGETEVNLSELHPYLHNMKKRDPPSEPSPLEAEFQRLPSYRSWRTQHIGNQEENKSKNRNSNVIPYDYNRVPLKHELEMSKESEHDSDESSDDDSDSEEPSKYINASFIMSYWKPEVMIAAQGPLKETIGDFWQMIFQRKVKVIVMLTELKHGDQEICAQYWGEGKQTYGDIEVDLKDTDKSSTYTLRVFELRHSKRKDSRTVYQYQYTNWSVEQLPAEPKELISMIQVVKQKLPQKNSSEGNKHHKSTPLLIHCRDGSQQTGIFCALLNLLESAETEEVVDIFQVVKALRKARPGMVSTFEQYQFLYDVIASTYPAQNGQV
T1 sequence (P23469 107-697): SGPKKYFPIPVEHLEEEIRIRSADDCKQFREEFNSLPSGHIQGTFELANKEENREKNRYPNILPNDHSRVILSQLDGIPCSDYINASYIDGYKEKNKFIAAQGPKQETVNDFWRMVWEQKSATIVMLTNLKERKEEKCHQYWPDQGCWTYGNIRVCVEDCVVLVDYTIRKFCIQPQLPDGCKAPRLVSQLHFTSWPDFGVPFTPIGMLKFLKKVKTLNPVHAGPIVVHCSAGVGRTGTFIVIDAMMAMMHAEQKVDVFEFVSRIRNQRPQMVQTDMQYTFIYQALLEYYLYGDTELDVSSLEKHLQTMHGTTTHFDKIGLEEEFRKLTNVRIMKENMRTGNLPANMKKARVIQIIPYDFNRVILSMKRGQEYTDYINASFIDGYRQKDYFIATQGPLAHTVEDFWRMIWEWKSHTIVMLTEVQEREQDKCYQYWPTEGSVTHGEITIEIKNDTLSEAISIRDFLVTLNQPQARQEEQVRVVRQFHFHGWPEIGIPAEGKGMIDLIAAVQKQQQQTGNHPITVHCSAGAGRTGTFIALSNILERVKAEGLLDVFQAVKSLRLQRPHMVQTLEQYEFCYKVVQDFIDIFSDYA
T3 sequence (P35236 22-360): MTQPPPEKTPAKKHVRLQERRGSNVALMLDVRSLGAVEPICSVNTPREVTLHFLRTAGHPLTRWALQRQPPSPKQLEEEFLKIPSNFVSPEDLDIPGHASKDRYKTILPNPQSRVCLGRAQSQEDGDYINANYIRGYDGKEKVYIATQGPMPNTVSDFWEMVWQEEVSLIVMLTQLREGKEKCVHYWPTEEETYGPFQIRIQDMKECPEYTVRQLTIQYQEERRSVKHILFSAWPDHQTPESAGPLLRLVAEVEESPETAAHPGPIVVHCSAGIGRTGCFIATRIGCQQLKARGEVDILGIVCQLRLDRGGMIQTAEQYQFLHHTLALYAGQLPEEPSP
T2 sequence (Q9UNH5 1-413): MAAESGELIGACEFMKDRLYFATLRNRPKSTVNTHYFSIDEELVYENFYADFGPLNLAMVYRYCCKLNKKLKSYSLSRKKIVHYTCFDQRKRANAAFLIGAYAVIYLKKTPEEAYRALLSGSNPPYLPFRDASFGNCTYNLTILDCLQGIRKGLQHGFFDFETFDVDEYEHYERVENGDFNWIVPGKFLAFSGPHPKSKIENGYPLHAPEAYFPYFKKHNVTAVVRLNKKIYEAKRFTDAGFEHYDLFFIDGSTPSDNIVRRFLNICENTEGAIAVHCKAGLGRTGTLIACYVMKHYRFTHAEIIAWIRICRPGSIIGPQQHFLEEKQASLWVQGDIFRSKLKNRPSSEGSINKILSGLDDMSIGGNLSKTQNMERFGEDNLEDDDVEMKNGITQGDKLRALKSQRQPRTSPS
T7 sequence (O60729 1-411): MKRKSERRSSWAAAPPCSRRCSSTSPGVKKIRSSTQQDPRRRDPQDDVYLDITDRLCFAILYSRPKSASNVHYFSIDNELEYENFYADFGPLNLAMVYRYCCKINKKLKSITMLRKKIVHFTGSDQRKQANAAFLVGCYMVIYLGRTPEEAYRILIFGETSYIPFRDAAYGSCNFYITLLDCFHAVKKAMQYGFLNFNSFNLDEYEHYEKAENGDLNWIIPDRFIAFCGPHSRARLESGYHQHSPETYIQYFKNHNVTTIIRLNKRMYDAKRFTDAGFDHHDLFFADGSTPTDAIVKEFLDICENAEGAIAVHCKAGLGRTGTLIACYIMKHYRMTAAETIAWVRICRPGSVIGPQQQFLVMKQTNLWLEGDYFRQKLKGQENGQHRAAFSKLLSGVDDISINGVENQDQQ
T16 sequence (Q05209 5-304): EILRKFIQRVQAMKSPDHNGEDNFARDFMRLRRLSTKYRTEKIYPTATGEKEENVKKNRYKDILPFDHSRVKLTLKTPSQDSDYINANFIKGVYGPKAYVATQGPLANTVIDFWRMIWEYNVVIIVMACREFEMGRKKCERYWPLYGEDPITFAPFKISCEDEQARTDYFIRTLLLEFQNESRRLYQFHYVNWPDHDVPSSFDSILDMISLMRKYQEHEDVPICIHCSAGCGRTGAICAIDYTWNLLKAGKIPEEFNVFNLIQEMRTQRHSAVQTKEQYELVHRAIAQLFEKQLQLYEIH
T10 sequence (Q06124 224-528): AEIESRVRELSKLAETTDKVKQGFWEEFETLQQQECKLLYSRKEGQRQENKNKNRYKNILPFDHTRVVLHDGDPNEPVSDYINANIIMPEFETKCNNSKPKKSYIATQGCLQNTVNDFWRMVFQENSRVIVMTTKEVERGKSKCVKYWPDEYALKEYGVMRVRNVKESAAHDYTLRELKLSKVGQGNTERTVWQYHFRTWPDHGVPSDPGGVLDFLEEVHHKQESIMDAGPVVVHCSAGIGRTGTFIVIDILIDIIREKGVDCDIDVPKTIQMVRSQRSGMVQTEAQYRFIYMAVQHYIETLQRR
T9 sequence (Q9BVJ7 whole entry, the tested form may be a part): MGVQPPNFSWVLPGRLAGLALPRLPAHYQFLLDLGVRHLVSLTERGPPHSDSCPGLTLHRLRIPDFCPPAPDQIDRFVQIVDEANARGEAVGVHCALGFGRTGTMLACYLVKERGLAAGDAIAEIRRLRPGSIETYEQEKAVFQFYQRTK
T5 sequence (P29350 245-543): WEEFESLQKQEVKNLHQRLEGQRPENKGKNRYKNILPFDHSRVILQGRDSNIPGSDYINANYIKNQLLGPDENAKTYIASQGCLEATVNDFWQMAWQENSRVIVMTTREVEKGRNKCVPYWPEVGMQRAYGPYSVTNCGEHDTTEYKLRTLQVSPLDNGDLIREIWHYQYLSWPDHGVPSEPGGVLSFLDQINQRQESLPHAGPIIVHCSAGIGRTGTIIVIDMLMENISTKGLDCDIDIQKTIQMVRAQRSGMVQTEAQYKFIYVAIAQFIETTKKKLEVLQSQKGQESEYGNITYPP
T15 sequence (Q9Y2R2 1-294): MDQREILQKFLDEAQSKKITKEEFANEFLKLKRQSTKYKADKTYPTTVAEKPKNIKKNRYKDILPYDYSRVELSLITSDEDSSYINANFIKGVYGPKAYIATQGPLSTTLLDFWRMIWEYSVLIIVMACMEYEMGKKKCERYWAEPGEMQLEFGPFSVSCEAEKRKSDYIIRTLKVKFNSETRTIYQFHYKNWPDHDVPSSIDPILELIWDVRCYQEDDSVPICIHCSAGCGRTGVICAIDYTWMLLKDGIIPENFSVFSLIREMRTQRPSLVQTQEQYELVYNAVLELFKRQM
T6 sequence (O95278 whole entry): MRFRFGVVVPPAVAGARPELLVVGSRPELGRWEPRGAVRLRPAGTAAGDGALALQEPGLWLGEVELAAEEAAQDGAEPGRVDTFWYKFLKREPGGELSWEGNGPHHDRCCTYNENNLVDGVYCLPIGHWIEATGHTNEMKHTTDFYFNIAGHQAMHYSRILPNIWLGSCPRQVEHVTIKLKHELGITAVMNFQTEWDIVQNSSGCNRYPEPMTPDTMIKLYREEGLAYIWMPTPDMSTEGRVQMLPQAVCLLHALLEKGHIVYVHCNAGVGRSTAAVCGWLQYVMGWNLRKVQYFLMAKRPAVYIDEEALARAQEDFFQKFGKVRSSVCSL
T14 sequence (P24666 whole entry, the tested form may be a part): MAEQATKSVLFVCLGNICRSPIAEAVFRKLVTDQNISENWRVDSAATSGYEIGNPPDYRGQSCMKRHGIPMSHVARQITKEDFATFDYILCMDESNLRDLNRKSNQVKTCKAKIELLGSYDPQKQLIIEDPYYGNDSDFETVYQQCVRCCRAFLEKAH

CC(C)(O)CCOc1ccc2cc(O)c(N3CC(=O)NS3(=O)=O)c(F)c2c1 [Compound 182, 5-(1-Fluoro-3-hydroxy-7-(3-hydroxy-3-methylbutoxy)naphthalen-2-yl)−1,2,5-thiadiazolidin-3-one 1,1-dioxide]
IC50 [1]: 0.8 ± 0.1 µM
IC50 [2]: 6.3 ± 0.8 µM
IC50 [3]: > 20 µM
IC50 [4]: > 20 µM
IC50 [5]: 9.1 ± 0.4 µM
IC50 [6]: > 20 µM
IC50 [7]: 5.2 ± 1.7 µM
IC50 [8]: > 20 µM
IC50 [9]: > 20 µM
IC50 [10]: 19.2 ± 1.7 µM
IC50 [11]: > 20 µM
IC50 [12]: > 20 µM
IC50 [13]: > 20 µM
IC50 [14]: > 20 µM
IC50 [15]: > 20 µM
IC50 [16]: > 20 µM
